The source of these data is patent US20260275299A1, “Bioprinted Three-Dimensional Tumor Model” (ASOCIACIÓN CENTRO DE INVESTIGACIÓN EN BIOMATERIALES - CIC …, priority 2023, published 2026).

In the assay the test system is MCF-7 tumor models. Nature of the assay: Live/dead staining of drug-treated 3D tumor models. The format is cell-based, human. The settings on record: 200 μM, compared to negative and positive controls.

SMILES strings stand for the structures.

Description: To assess cell viability in both the core tumor model and the 3D breast tumor model with the stromal compartment, calcein (targets live cells in green) and propidium iodide (targets dead cells in red) were added to the cell culture medium of the 3D constructs at a 1:100 concentration.

As to `CC/C(=C(\c1ccccc1)c1ccc(OCCN(C)C)cc1)c1ccccc1` [Tamoxifen], the live/dead staining entry is recorded as “Dead cells are observed in the outer regions of the models”.
